From publication PMC5218821 (Journal of ocular biology, 2016)

Target: T1, soluble epoxide hydrolase (sEH) (Oryctolagus cuniculus, UniProt A0A5F9CRP6)
T1 construct: gene ADAM2
T1 sequence (A0A5F9CRP6 1-555): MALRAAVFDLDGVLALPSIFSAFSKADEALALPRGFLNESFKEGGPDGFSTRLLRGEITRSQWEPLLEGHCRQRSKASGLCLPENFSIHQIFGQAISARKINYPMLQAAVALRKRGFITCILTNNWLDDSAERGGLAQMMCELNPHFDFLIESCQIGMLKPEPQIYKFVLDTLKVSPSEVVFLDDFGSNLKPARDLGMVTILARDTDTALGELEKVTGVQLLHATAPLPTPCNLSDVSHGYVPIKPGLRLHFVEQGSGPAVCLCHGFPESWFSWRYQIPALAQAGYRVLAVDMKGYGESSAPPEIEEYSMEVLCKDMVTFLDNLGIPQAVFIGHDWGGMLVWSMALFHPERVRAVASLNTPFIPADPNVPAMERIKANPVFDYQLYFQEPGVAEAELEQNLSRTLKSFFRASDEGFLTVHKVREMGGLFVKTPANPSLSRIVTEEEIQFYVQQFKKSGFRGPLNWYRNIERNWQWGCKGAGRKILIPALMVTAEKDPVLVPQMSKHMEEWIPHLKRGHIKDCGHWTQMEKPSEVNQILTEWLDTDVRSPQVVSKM
Test: biochemical

IC50: 0.088 µM
SMILES: CS(=O)(=O)N1CCC(NC(=O)Nc2ccc(OC(F)(F)F)cc2)CC1 [UC1709, TUPS]
